Measured values published in ChEMBL document CHEMBL1201862, “PubChem BioAssay data set” (2004).
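These data come from cells grown in 96-well plates and exposed to compound for 48 hours at five concentrations. At the GI50, growth is halved.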 The source made the active and inactive calls. Cut-off read from the data, not from the text of the source: active = GI50 up to about 1.1 µM and inactive = higher.

Assays:
Test in all cases: DTP human tumour cell line panel, 48 h
786-0 = system: 786-0
KM12 = system: KM12
LOX IMVI = system: LOX IMVI
OVCAR-4 = system: OVCAR-4
A549 = system: A549
DMS-273 = system: DMS-273
EKVX = system: EKVX
M14 = system: M14
SR = system: SR
SF-295 = system: SF-295
SF-268 = system: SF-268
IGROV-1 = system: IGROV-1
OVCAR-3 = system: OVCAR-3
SN12C = system: SN12C
HOP-62 = system: HOP-62

Measured: GI50

COC(=O)C(=O)C(C(=O)C=C(C)C)C(=O)C(=O)Nc1ccc(Cl)cc1C (stereo unspecified)
inactive: 786-0 > 100 µM | KM12 > 100 µM | LOX IMVI > 100 µM | OVCAR-4 > 100 µM | A549 > 100 µM | DMS-273 35.6 µM | EKVX > 100 µM | M14 > 100 µM | SR 23.3 µM | SF-295 > 100 µM | SF-268 > 100 µM | IGROV-1 > 100 µM | OVCAR-3 > 100 µM | SN12C > 100 µM | HOP-62 > 100 µM

C/C(=N\Nc1ccccc1)c1sc(-c2nc(C)c(/C(C)=N/Nc3ccccc3)s2)nc1C
inactive: 786-0 18.8 µM | KM12 24.7 µM | LOX IMVI 7.96 µM | OVCAR-4 21.2 µM | A549 13.5 µM | DMS-273 8.93 µM | EKVX 24.7 µM | M14 7.71 µM | SR 25.6 µM | SF-295 9.98 µM | IGROV-1 14.1 µM | OVCAR-3 23.6 µM | SN12C > 78.2 µM

O=c1[nH]c(-c2ccccc2)nc2ccc(Cl)cc12
inactive: 786-0 60.8 µM | KM12 68.5 µM | OVCAR-4 30.3 µM | A549 > 100 µM | DMS-273 45.9 µM | EKVX 54.7 µM | SR 85.5 µM | SF-295 73.6 µM | SF-268 28 µM | OVCAR-3 31 µM | SN12C 41 µM

O=C(CCN1CCCCC1CCO)Nc1ccc2c(c1)C(=O)c1ccc(NC(=O)CCN3CCCCC3CCO)cc1C2=O (stereo unspecified)
inactive: 786-0 1.97 µM | KM12 2.54 µM | LOX IMVI 2.99 µM | OVCAR-4 12.4 µM | A549 16.7 µM | DMS-273 2.83 µM | EKVX 7.41 µM | SR 4.14 µM | SF-295 16.7 µM | SF-268 4.88 µM | IGROV-1 4.9 µM | OVCAR-3 2.37 µM | SN12C 3.67 µM | HOP-62 4.35 µM

Nc1nc(-c2ccco2)cc(-c2ccco2)n1
inactive: 786-0 > 100 µM | KM12 > 100 µM | LOX IMVI > 100 µM | OVCAR-4 > 100 µM | A549 > 100 µM | DMS-273 5.14 µM | EKVX > 100 µM | M14 > 100 µM | SR > 100 µM | SF-295 > 100 µM | SF-268 > 100 µM | IGROV-1 > 100 µM | OVCAR-3 > 100 µM | SN12C > 100 µM | HOP-62 > 100 µM

CCC(C)CNC1=C(NC(C)=O)C(=O)c2ccccc2C1=O (stereo unspecified)
inactive: 786-0 > 100 µM | KM12 > 100 µM | LOX IMVI > 100 µM | OVCAR-4 > 100 µM | A549 > 100 µM | DMS-273 > 100 µM | EKVX > 100 µM | M14 > 100 µM | SR > 100 µM | SF-295 > 100 µM | SF-268 > 100 µM | IGROV-1 > 100 µM | OVCAR-3 55.7 µM | SN12C > 100 µM | HOP-62 > 100 µM

C/C=C(/CCC1NCCC2c3ccccc3NC12)[Si](C)(C)C (stereo unspecified)
inactive: 786-0 11.3 µM | KM12 4.52 µM | LOX IMVI 7.31 µM | OVCAR-4 7.57 µM | A549 14.6 µM | DMS-273 8.55 µM | EKVX 14.4 µM | M14 3.66 µM | SR 2.9 µM | SF-295 15.6 µM | SF-268 9.31 µM | IGROV-1 12.8 µM | OVCAR-3 11.4 µM | SN12C 11.7 µM | HOP-62 15.2 µM

COc1ccc(O)cc1C=O
inactive: 786-0 > 100 µM | KM12 23.8 µM | LOX IMVI 54 µM | OVCAR-4 > 100 µM | A549 > 100 µM | DMS-273 87.9 µM | EKVX > 100 µM | M14 43.2 µM | SR 18.8 µM | SF-295 > 100 µM | SF-268 > 100 µM | IGROV-1 > 100 µM | OVCAR-3 > 100 µM | SN12C > 100 µM | HOP-62 > 100 µM

Cc1c(-c2nnc(-c3ccc(Cl)cc3)o2)c(=O)n(-c2ccccc2)n1C
inactive: 786-0 > 100 µM | KM12 > 100 µM | LOX IMVI > 100 µM | OVCAR-4 > 100 µM | A549 > 100 µM | DMS-273 > 100 µM | EKVX > 100 µM | M14 > 100 µM | SR > 100 µM | SF-295 > 100 µM | SF-268 > 100 µM | IGROV-1 > 100 µM | OVCAR-3 > 100 µM | SN12C > 100 µM | HOP-62 > 100 µM

COC(=O)c1c/c(=N\NC(=O)CC(=O)Nc2ccccc2Cl)c2ccccc2o1
inactive: 786-0 > 100 µM | KM12 > 100 µM | LOX IMVI > 100 µM | OVCAR-4 > 100 µM | A549 > 100 µM | DMS-273 > 100 µM | EKVX > 100 µM | M14 > 100 µM | SR > 100 µM | SF-295 > 100 µM | SF-268 > 100 µM | IGROV-1 > 100 µM | OVCAR-3 > 100 µM | SN12C > 100 µM | HOP-62 > 100 µM

CN(C)c1ccc(/C=C(\C#N)C(=O)c2ccccc2)cc1Br
inactive: 786-0 > 100 µM | KM12 > 100 µM | LOX IMVI 25.5 µM | OVCAR-4 > 100 µM | A549 > 100 µM | DMS-273 > 100 µM | EKVX > 100 µM | M14 > 100 µM | SR 38.5 µM | SF-295 > 100 µM | SF-268 > 100 µM | OVCAR-3 > 100 µM | SN12C > 100 µM | HOP-62 20.8 µM

CCCCCC/C=C1\CCC(CN2CCCC2)C1=O (stereo unspecified)
inactive: 786-0 2.61 µM | KM12 3.56 µM | LOX IMVI 8.3 µM | OVCAR-4 22.8 µM | A549 20.5 µM | DMS-273 12.7 µM | EKVX 18.5 µM | M14 18.6 µM | SR 2.99 µM | SF-295 18.9 µM | SF-268 18.5 µM | IGROV-1 19.7 µM | OVCAR-3 13.9 µM | SN12C 12.9 µM | HOP-62 18.7 µM

COC1=C(C)C(=O)c2c(cc3c(c2O)C(C)(CCC=C(C)C)C(C)O3)C1=O (stereo unspecified)
inactive: 786-0 > 100 µM | KM12 > 55.7 µM | LOX IMVI 18.2 µM | OVCAR-4 > 100 µM | A549 20 µM | DMS-273 > 57.1 µM | EKVX > 100 µM | M14 23.4 µM | SR > 85.7 µM | SF-295 20.3 µM | SF-268 > 100 µM | IGROV-1 > 100 µM | OVCAR-3 > 100 µM | SN12C 33.5 µM | HOP-62 18.2 µM

C[C@@H]1C[C@]2(C[C@@H](C)C3[C@@H](CC4(C)[C@@H]5CCC6C(C)(C)OC(=O)C=C[C@]67C[C@@]5(CC[C@]34C)OO7)O2)OC1=O (stereo partly specified)
inactive: 786-0 > 100 µM | LOX IMVI 44.2 µM | OVCAR-4 24.8 µM | A549 > 100 µM | DMS-273 > 100 µM | M14 48.1 µM | SR > 100 µM | SF-295 36 µM | IGROV-1 56.2 µM | OVCAR-3 24.1 µM | SN12C > 100 µM

C[C@]12CCC(=O)C[C@H]1CCC(O)[C@@H]2Br (stereo partly specified)
inactive: 786-0 > 100 µM | KM12 > 100 µM | LOX IMVI > 100 µM | OVCAR-4 > 100 µM | A549 > 100 µM | DMS-273 > 100 µM | M14 > 100 µM | SR > 100 µM | SF-295 > 100 µM | SF-268 > 100 µM | IGROV-1 > 100 µM | OVCAR-3 > 100 µM | SN12C > 100 µM | HOP-62 > 100 µM

Oc1c2c(nc3cc4c(cc13)OCO4)-c1ccccc1CC2
inactive: 786-0 > 100 µM | LOX IMVI > 100 µM | OVCAR-4 > 100 µM | A549 > 100 µM | DMS-273 > 100 µM | EKVX > 100 µM | M14 > 100 µM | SR > 100 µM | SF-295 > 100 µM | SF-268 > 100 µM | IGROV-1 > 100 µM | OVCAR-3 > 100 µM | SN12C > 100 µM | HOP-62 > 100 µM
